Data taken from PMC10611442, “Amelogenin Peptide-Chitosan Hydrogel for Biomimetic Enamel Regrowth” (Frontiers in dental medicine, 2021).

Test: Nanoindentation (hardness and elastic modulus) of remineralized enamel sections
Design: species or system human
Details: demineralization 2 h pH 4.6; 7-day mineralization cycle in artificial saliva, daily application, hydrogels 0.2 mg/ml; mean ± SD
Experimental: To enhance the mechanical responses, the remineralization cycle was optimized and extended to 7 days. After demineralization, each tooth setting (comprising 3 or 4 teeth sections) was placed into separate cylindrical containers containing remineralization solution (30 ml, pH 7, RT) for 1 week. Experimental groups included healthy enamel, demineralized enamel, control (900 ppm F^−; 0.2% NaF), P26-CS and P32-CS (n = 3 per group).
Every 24 h after the start of the remineralization cycle, 30 μL of NaF solution (900 ppm F^−; 0.2% NaF) was added on top of each tooth for 10 min per day. The teeth were gently rinsed in distilled water and dried. A fresh 20 μl treatment application (P26-CS and P32-CS) was made to each window, followed by air drying for 15 min at RT and then the samples were returned to the fresh stock of remineralization solution. The remineralization solution and peptide were replaced daily. After 1 week of daily treatment application, the slices were sonicated, rinsed, dried, and stored in distilled water at 4°C for nanoindentation. The hardness and elastic modulus of the peptide-mediated mineralized layers were evaluated by nanoindentation tests. The device was calibrated to examine the mechanical properties of the remineralized HAP layers on teeth slices at the nanoscale. […]

For `[F-].[Na+]` [0.2% NaF, NaF], the “elastic modulus of regrown enamel (nanoindentation)” value was 40.57 ± 15.8 GPa and the “hardness of regrown enamel (nanoindentation)” value was 1.3 ± 0.6 GPa.
